Results published in US20240376048A1 (Celgene Corporation, priority 2021, published 2024).

Target: S1P5 (Homo sapiens, UniProt Q9H228)
Assay: [35S]-GTPγS binding assay (S1P5 agonism), CHO cell membranes
Assay type: biochemical
Details: membranes of CHO cells expressing recombinant S1P5 receptors, measure of S1P5 agonism
Protocol: CHO cells expressing recombinant S1P5 receptors were cultured in 500 cm^2 culture trays and, once confluent, rinsed and detached with cell-lifting buffer (10 mM HEPES, 154 mM NaCl, 6.85 mM EDTA, pH 7.4). Cells were then pelleted by centrifugation, resuspended, and homogenized in membrane preparation buffer (10 mM HEPES and 10 mM EDTA, pH 7.4) using a Polytron PT 1200E homogenizer (Kinematica, Luzern, Switzerland). Cellular proteins were pelleted by centrifugation at 48,000×g at 4° C. for 30 minutes. The resulting supernatant was discarded, and the pellet was re-suspended again in membrane preparation buffer, homogenized for a second time, and then centrifuged again as described above. The final cellular protein pellet was suspended in ice cold resuspension buffer (10 mM HEPES and 0.1 mM EDTA, pH 7.4), divided into aliquots, and stored at −80° C. until use.
Functional binding assays for [^35S]-GTPγS were performed in 96-well non-binding surface plates with a final volume of 200 μL. The test compounds were serially diluted in DMSO and added to assay plates using a Tecan D300E digital printer with a total volume of […]. The control sphingosine-1-phosphate (S1P) was prepared separately by preparing a 400 μM stock solution from a 100 nmol pellet of S1P in 10 mM Na2CO3 with 2% […]. The serial dilution of S1P was done using complete assay buffer (20 mM HEPES, 10 mM MgCl2, 100 mM NaCl, 1 mM EDTA, 0.1% fatty acid free bovine serum albumin (BSA), and 30 μg/mL saponin, pH 7.4) and transferred to wells already containing 0.4 μL DMSO. All the wells were then loaded to a total volume of 40 μL of complete assay buffer, except the non-specific binding (NSB) wells. For NSB wells, 40 μL/well of 50 μM GTPγS (Sigma Aldrich, cat #G8634, St. Louis, MO) was added to wells containing 0.4 μL of DMSO. The assay was started by the addition of 120 μL/well of CHO-SlP receptor membrane solution containing 40 μg/mL of membrane protein, 16.67 μM guanosine diphosphate (GDP; Sigma Aldrich, cat #G7127, St. Louis, MO), and 2.5 mg/mL of WGA PVT SPA beads in complete buffer. Assay plates were then sealed and incubated at room temperature with gentle agitation for 30 minutes. Next, 40 µL/well of 1 nM of [^35S]-GTPγS (PerkinElmer, cat #NEG030X25OUC, Waltham, MA) in basic assay buffer (20 mM HEPES, 10 mM MgCl2, 100 mM NaCl, and 1 mM EDTA, pH7.4) was added to the assay plates to yield a final concentration of 200 pM and the plates were further incubated for 40 minutes at room temperature with gentle agitation. The assay was terminated by centrifugation of the plates at 1000 rpm for 3 minutes using an Eppendorf 5810R centrifuge (Eppendorf, Hamburg, Germany) and G protein bound radioactivity was quantitated using a MicroBeta2 microplate scintillation counter (PerkinElmer, Waltham, MA). As G protein bound radioactivity directly correlates to receptor activation and coupling to the G protein, this assay is a measure of S1P5 agonism.

Sequence of S1P5 (Q9H228 whole entry, species assumed): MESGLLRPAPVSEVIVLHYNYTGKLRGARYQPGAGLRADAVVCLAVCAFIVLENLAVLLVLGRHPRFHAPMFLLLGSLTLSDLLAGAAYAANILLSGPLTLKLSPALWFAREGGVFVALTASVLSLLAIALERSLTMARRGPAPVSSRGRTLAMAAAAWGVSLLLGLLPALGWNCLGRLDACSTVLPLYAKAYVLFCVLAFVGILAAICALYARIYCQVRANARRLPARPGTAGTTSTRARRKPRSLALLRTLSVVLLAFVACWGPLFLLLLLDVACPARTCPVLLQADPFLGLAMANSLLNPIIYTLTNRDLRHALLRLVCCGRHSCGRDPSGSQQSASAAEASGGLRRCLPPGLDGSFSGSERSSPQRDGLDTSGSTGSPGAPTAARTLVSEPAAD

| SMILES | EC50 |
| --- | --- |
| Cc1ccc(COc2ccc3c(c2)CCC3N2CC(C(=O)O)C2)cc1Cl (centres unmarked) [Compound 1, 1-(5-((3-chloro-4-methylbenzyl)oxy)-2,3-dihydro-1H-inden-1-yl)azetidine-3-carboxylic acid] | 1 to 10 nM |
| Cc1ccc(COc2ccc3c(c2)CCC3N2CC(C(=O)O)C2)cc1C(F)(F)F (centres unmarked) [Compound 2, 1-(5-((4-methyl-3-(trifluoromethyl)benzyl)oxy)-2,3-dihydro-1H-inden-1-yl)azetidine-3-carboxylic acid] | 10 to 100 nM |
| Cc1ccc(COc2ccc3c(c2)CCC3N2CC(C(=O)O)C2)c(Cl)c1 (centres unmarked) [Compound 3, 1-(5-((2-chloro-4-methylbenzyl)oxy)-2,3-dihydro-1H-inden-1-yl)azetidine-3-carboxylic acid] | 1 to 10 nM |
| Cc1ccc(COc2ccc3c(c2)CCC3N2CC(C(=O)O)C2)c(F)c1 (centres unmarked) [Compound 4, 1-(5-((2-fluoro-4-methylbenzyl)oxy)-2,3-dihydro-1H-inden-1-yl)azetidine-3-carboxylic acid] | 10 to 100 nM |
| CC(C)Oc1ccc(COc2ccc3c(c2)CCC3N2CC(C(=O)O)C2)cc1C(F)(F)F (centres unmarked) [Compound 5, 1-(5-((4-isopropoxy-3-(trifluoromethyl)benzyl)oxy)-2,3-dihydro-1H-inden-1-yl)azetidine-3-carboxylic acid] | 1 to 10 nM |
| CC(C)Oc1ccc(COc2ccc3c(c2)CCC3N2CC(C(=O)O)C2)cc1C#N (centres unmarked) [Compound 6, 1-(5-((3-cyano-4-isopropoxybenzyl)oxy)-2,3-dihydro-1H-inden-1-yl)azetidine-3-carboxylic acid] | 10 to 100 nM |
| O=C(O)C1CN(C2CCc3cc(OCc4ccc(C5CC5)cc4F)ccc32)C1 (centres unmarked) [Compound 7, 1-(5-((4-cyclopropyl-2-fluorobenzyl)oxy)-2,3-dihydro-1H-inden-1-yl)azetidine-3-carboxylic acid] | 10 to 100 nM |
| O=C(O)C1CN(C2CCc3cc(OCc4ccc(C5CC5)cc4Cl)ccc32)C1 (centres unmarked) [Compound 8, 1-(5-((2-chloro-4-cyclopropylbenzyl)oxy)-2,3-dihydro-1H-inden-1-yl)azetidine-3-carboxylic acid] | 10 to 100 nM |
| O=C(O)C1CN(C2CCc3cc(OCc4ccc(C5CC5)c(C(F)(F)F)c4)ccc32)C1 (centres unmarked) [Compound 9, 1-(5-((4-cyclopropyl-3-(trifluoromethyl)benzyl)oxy)-2,3-dihydro-1H-inden-1-yl)azetidine-3-carboxylic acid] | 1 to 10 nM |
| O=C(O)C1CN(C2CCc3cc(OCc4ccc(C5CC5)c(Cl)c4)ccc32)C1 (centres unmarked) [Compound 10, 1-(5-((3-chloro-4-cyclopropylbenzyl)oxy)-2,3-dihydro-1H-inden-1-yl)azetidine-3-carboxylic acid] | 10 to 100 nM |
| O=C(O)C1CN(C2CCc3cc(OCc4ccccc4F)ccc32)C1 (centres unmarked) [Compound 11, 1-(5-((2-fluorobenzyl)oxy)-2,3-dihydro-1H-inden-1-yl)azetidine-3-carboxylic acid] | 10 to 100 nM |
| O=C(O)C1CN(C2CCc3cc(OCc4cccc(F)c4)ccc32)C1 (centres unmarked) [Compound 12, 1-(5-((3-fluorobenzyl)oxy)-2,3-dihydro-1H-inden-1-yl)azetidine-3-carboxylic acid] | 10 to 100 nM |
| O=C(O)C1CN(C2CCc3cc(OCc4ccc(F)cc4)ccc32)C1 (centres unmarked) [Compound 13, 1-(5-((4-fluorobenzyl)oxy)-2,3-dihydro-1H-inden-1-yl)azetidine-3-carboxylic acid] | 10 to 100 nM |
| O=C(O)C1CN(C2CCc3cc(OCc4ccc(F)cc4F)ccc32)C1 (centres unmarked) [Compound 14, 1-(5-((2,4-difluorobenzyl)oxy)-2,3-dihydro-1H-inden-1-yl)azetidine-3-carboxylic acid] | 10 to 100 nM |
| O=C(O)C1CN(C2CCc3cc(OCc4cc(F)ccc4F)ccc32)C1 (centres unmarked) [Compound 15, 1-(5-((2,5-difluorobenzyl)oxy)-2,3-dihydro-1H-inden-1-yl)azetidine-3-carboxylic acid] | 10 to 100 nM |
| O=C(O)C1CN(C2CCc3cc(OCc4ccc(F)c(Cl)c4)ccc32)C1 (centres unmarked) [Compound 16, 1-(5-((3-chloro-4-fluorobenzyl)oxy)-2,3-dihydro-1H-inden-1-yl)azetidine-3-carboxylic acid] | 10 to 100 nM |

The remaining lines, values ahead:

| EC50 | SMILES |
| --- | --- |
| 10 to 100 nM | O=C(O)[C@H]1CCN(C2CCc3cc(OCc4c(Cl)cccc4Cl)ccc32)C1 (single isomer, unassigned) [Compound 24a] |
| 1 to 10 nM | O=C(O)[C@H]1CCN(C2CCc3cc(OCc4c(Cl)cccc4Cl)ccc32)C1 (single isomer, unassigned) [Compound 24b] |
| 1 to 10 nM | O=C(O)[C@@H]1CCN(C2CCc3cc(OCc4c(Cl)cccc4Cl)ccc32)C1 (single isomer, unassigned) [Compound 25a] |
| 1 to 10 nM | O=C(O)[C@@H]1CCN(C2CCc3cc(OCc4c(Cl)cccc4Cl)ccc32)C1 (single isomer, unassigned) [Compound 25b] |
| 10 to 100 nM | O=C(O)C1CCN(C2CCc3cc(OCc4cccc(C(F)(F)F)c4)ccc32)CC1 (single isomer, unassigned) [Compound 26a, 1-(5-((3-(trifluoromethyl)benzyl)oxy)-2,3-dihydro-1H-inden-1-yl)piperidine-4-carboxylic acid] |
| 100 to 1000 nM | O=C(O)C1CCN(C2CCc3cc(OCc4cccc(C(F)(F)F)c4)ccc32)CC1 (single isomer, unassigned) [Compound 26b, 1-(5-((3-(trifluoromethyl)benzyl)oxy)-2,3-dihydro-1H-inden-1-yl)piperidine-4-carboxylic acid] |
| 1 to 10 nM | O=C(O)C1CN(C2CCc3cc(OCc4cc(F)c(F)cc4F)ccc32)C1 (centres unmarked) [Compound 17, 1-(5-((2,4,5-trifluorobenzyl)oxy)-2,3-dihydro-1H-inden-1-yl)azetidine-3-carboxylic acid] |
| 10 to 100 nM | O=C(O)C1CN(C2CCc3cc(OCc4cc(F)cc(F)c4F)ccc32)C1 (centres unmarked) [Compound 18, 1-(5-((2,3,5-trifluorobenzyl)oxy)-2,3-dihydro-1H-inden-1-yl)azetidine-3-carboxylic acid] |
| 10 to 100 nM | O=C(O)C1CN(C2CCc3cc(OCc4ccc(F)c(F)c4)ccc32)C1 (centres unmarked) [Compound 19, 1-(5-((3,4-difluorobenzyl)oxy)-2,3-dihydro-1H-inden-1-yl)azetidine-3-carboxylic acid] |
| 10 to 100 nM | O=C(O)C1CN(C2CCc3cc(OCc4cccc(I)c4)ccc32)C1 (centres unmarked) [Compound 20, 1-(5-((3-iodobenzyl)oxy)-2,3-dihydro-1H-inden-1-yl)azetidine-3-carboxylic acid] |
| 100 to 1000 nM | O=C(O)C1CN(C2CCc3cc(OCc4ccc(I)cc4)ccc32)C1 (centres unmarked) [Compound 21, 1-(5-((4-iodobenzyl)oxy)-2,3-dihydro-1H-inden-1-yl)azetidine-3-carboxylic acid] |
| 100 to 1000 nM | O=C(O)[C@H]1[C@@H]2CN(C3CCc4cc(OCc5c(Cl)cccc5Cl)ccc43)C[C@@H]21 (stereo partly drawn) [Compound 22, (1R,5S,6r)-3-(5-((2,6-dichlorobenzyl)oxy)-2,3-dihydro-1H-inden-1-yl)-3-azabicyclo[3.1.0]hexane-6-carboxylic acid] |
| 1 to 10 nM | O=C(O)[C@@H]1[C@@H]2CN(C3CCc4cc(OCc5c(Cl)cccc5Cl)ccc43)C[C@@H]21 (stereo partly drawn) [Compound 23, (1R,5S,6s)-3-(5-((2,6-dichlorobenzyl)oxy)-2,3-dihydro-1H-inden-1-yl)-3-azabicyclo[3.1.0]hexane-6-carboxylic acid] |
| 1 to 10 nM | O=C(O)C1CC2(C1)CN(C1CCc3cc(OCc4c(Cl)cccc4Cl)ccc31)C2 (centres unmarked) [Compound 27, 2-(5-((2,6-dichlorobenzyl)oxy)-2,3-dihydro-1H-inden-1-yl)-2-azaspiro[3.3]heptane-6-carboxylic acid] |
| 10 to 100 nM | CC1(C)CC(C(=O)O)CCN1C1CCc2cc(OCc3c(Cl)cccc3Cl)ccc21 (centres unmarked) [Compound 28, 1-(5-((2,6-dichlorobenzyl)oxy)-2,3-dihydro-1H-inden-1-yl)-2,2-dimethylpiperidine-4-carboxylic acid] |
| 10 to 100 nM | CC1(C(=O)O)CCN(C2CCc3cc(OCc4c(Cl)cccc4Cl)ccc32)CC1 (centres unmarked) [Compound 29, 1-(5-((2,6-dichlorobenzyl)oxy)-2,3-dihydro-1H-inden-1-yl)-4-methylpiperidine-4-carboxylic acid] |
